Earlier results, collected in patent US20120277719A1, “COATING COMPOSITIONS, METHODS AND COATED DEVICES” (MASSACHUSETTS INSTITUTE OF TECHNOLOGY, priority 2011, published 2012).

Details: reported

pKa: ~8.5
SMILES: O=C(OC[C@H]1O[C@@H](OC(=O)c2cc(O)c(O)c(OC(=O)c3cc(O)c(O)c(O)c3)c2)[C@H](OC(=O)c2cc(O)c(O)c(OC(=O)c3cc(O)c(O)c(O)c3)c2)[C@@H](OC(=O)c2cc(O)c(O)c(OC(=O)c3cc(O)c(O)c(O)c3)c2)[C@@H]1OC(=O)c1cc(O)c(O)c(OC(=O)c2cc(O)c(O)c(O)c2)c1)c1cc(O)c(O)c(OC(=O)c2cc(O)c(O)c(O)c2)c1 [Tannic acid, tannic acid]
